Holding throughout (conditions): sulfur source concentration 200 µM; S. cerevisiae S288C/BY sul1Δ sul2Δ soa1Δ with transporter ortholog inserted at SOA1 locus; sulfur-free B medium, 4% glucose, pH 6.5, sole sulfur source
Experiment [1] deals with Aspergillus nidulans_XP_661733. Kind of experiment: lag phase before growth; higher = slower start of growth.
Experiment [2] concerns Fusarium oxysporum_ENH65823. The description is as above.
In experiment [3] the test system is Aspergillus nidulans_XP_661711. Described as above.
The test system of experiment [4] is Metarhizium robertsii_XP_007823832. The description is as above.
In experiment [5] the test system is Saccharomyces uvarum_SOA2. Description: maximal growth rate with compound as sole sulfur source (OD600 per h); higher = better growth / uptake of the sulfur source.
The test system of experiment [6] is Aspergillus nidulans_XP_661733. Described as above.
Experiment [7] deals with Aspergillus nidulans_XP_660563. The description is as above.
The subject of experiment [8] is Saccharomyces eubayanus_SOA2. The experiment is described as above.
Experiment [9] deals with Aspergillus nidulans_XP_681611. The description is as above.
In experiment [10] the test system is Aspergillus nidulans_CBF74694. The description is as above.
The subject of experiment [11] is Ogataea parapolymorpha_XP_013932458. The experiment is described as above.
For experiment [12], the system named is Fusarium oxysporum_ENH65823. The description is as above.
Experiment [13] deals with Aspergillus nidulans_XP_661711. The experiment is described as above.
The test system of experiment [14] is Aspergillus nidulans_XP_660670. The description is as above.
The subject of experiment [15] is Saccharomyces cerevisiae_SOA1. The description is as above.
For experiment [16], the system named is soa1 del. The experiment is described as above.
For experiment [17], the system named is Aspergillus nidulans (IAM 2006)_astA. Description: lag phase before growth; higher = slower start of growth.
The subject of experiment [18] is Saccharomyces eubayanus_SOA2. Described as above.
Experiment [19] concerns Aspergillus nidulans_XP_660563. Described as above.
In experiment [20] the test system is Metarhizium robertsii_XP_007821441. The description is as above.
The subject of experiment [21] is Ogataea parapolymorpha_XP_013936897. The description is as above.
For experiment [22], the system named is Aspergillus nidulans_XP_681611. The description is as above.
The subject of experiment [23] is Aspergillus nidulans_CBF74694. Described as above.
In experiment [24] the test system is Ogataea parapolymorpha_XP_013932458. The description is as above.
In experiment [25] the test system is Aspergillus nidulans_XP_660670. The experiment is described as above.
In experiment [26] the test system is soa1 del. The description is as above.
Experiment [27] has as its system Aspergillus nidulans_CBF80346. The experiment is described as above.

This note sets out measurements from the supplement of paper PMC5303821, “Major sulfonate transporter Soa1 in Saccharomyces cerevisiae and considerable substrate diversity in its fungal family” (Nature Communications, 2017).

Turning to `N[C@@H](CS(=O)(=O)O)C(=O)O` [L-cysteic acid], the “lag phase before growth” value in [1] was determined as 17.2 h; in [2], 7.6 h; in [3], 5.14 h; in experiment [4] it was 7.57 h. Further, the maximal growth rate in experiment [5] was 0.00261; in experiment [6], 0.0304; in experiment [7] it was 0.00641; in experiment [8], 0.00291; in experiment [9], 0.00678; in experiment [10] it was 0.003. The maximal growth rate amounted to 0.00397 in experiment [11]; 0.01 in experiment [12]; 0.00852 in experiment [13]; 0.00837 in [14]; 0.037 in [15]; 0.00337 in the experiment on soa1 del [16].
Regarding `O=S(O)O` [sulfite], the “lag phase before growth” value in experiment [17] came to 6.93 h; in [4] it was 8.25 h. The maximal growth rate in [5] was found to be 0.0556; in [6] it was 0.0047; in experiment [7], 0.00646; in experiment [8], 0.00564; in experiment [9], 0.00588; in [10] it was 0.00286. The maximal growth rate in experiment [11] worked out at 0.0051; in experiment [12] it was 0.00381; in [13], 0.004; in [14], 0.00402; in experiment [15] it was 0.12; in the experiment on soa1 del [16], 0.00378.
For `O=S(=O)(O)CO` [Hydroxymethane sulfonate], the figures for the “lag phase before growth” value in [18], in experiment [17] and in experiment [4] were 23.8 h, 0.457 h and 4.31 h, respectively. The maximal growth rate in [5] came out at 0.107; in experiment [6], 0.00489; in [7], 0.00603; in [8], 0.0594; in experiment [9], 0.00603; in experiment [10] it was 0.00325. In addition, the maximal growth rate in [11] turned out to be 0.00402; in experiment [12], 0.00319; in experiment [13], 0.00357; in experiment [14], 0.00358; in experiment [15], 0.121; in the experiment with soa1 del [16], 0.00406.
For the compound `CSCC[C@H](N)C(=O)O` [Methionine], the “lag phase before growth” value amounted to 4.49 h in [1]; 3.48 h in experiment [19]; 4.5 h in experiment [20]; 2.97 h in experiment [21]; 4.47 h in experiment [18]; 3.6 h in experiment [22]. The “lag phase before growth” value in experiment [23] stood at 5.36 h; in experiment [24] it was 3.88 h; in experiment [17], 5.14 h; in experiment [2], 5.35 h; in experiment [3] it was 4.47 h; in experiment [25], 4.47 h. Besides, the “lag phase before growth” value is 4.38 h in experiment [4], 4.14 h in the experiment with soa1 del [26] and 5.16 h in experiment [27]. For the same compound, the maximal growth rate in [5] turned out to be 0.138; in [6] it was 0.136; in [7] it was 0.13; in [8] it was 0.127; in [9] it was 0.142; in [10] it was 0.138. Moreover, the maximal growth rate in experiment [11] is 0.131; in experiment [12] it was 0.144; in experiment [13], 0.139; in experiment [14], 0.139; in experiment [15], 0.145; in the experiment on soa1 del [16] it was 0.141.
